Paper PMC12036814 (Angewandte Chemie (International Ed. in English), 2025)

Columns and labels:
NUDT1 = NUDT1 (Homo sapiens, UniProt P36639); experiment: NUDT1 in vitro activity assay (malachite green); assay type: biochemical; design: Full length NUDT1 gene synthesis; N-terminal His tag with thrombin site from pET28a(+) (NdeI/XhoI) (N, cleaved yes); made in house; host or cells: E. coli BL21 (DE3); conditions: 100 μM
[1] = test system: IDH2 mRNA in PDL-hTERT cells; experiment: Quantitative PCR of IDH2 mRNA; assay type: cell-based, human; design: dose or concentration left out as unconfirmed; conditions: […] µM, GAPDH housekeeper

O=C(O)c1cn(C2CC2)c2cc(N3CCNCC3)c(F)cc2c1=O [Ciprofloxacin]
NUDT1 in vitro activity, inhibition (NUDT1): significant partial inhibition | IDH2 mRNA levels versus vehicle control [1]: not significantly changed
